Columns and labels:
[1] = test system: C57 mice subcutaneous xenografts tumor of MC38-hPDL1 cells; assay: Tumor inhibition experiment on MC38-hPDL1 xenograft model; assay type: in vivo
Method: Test Embodiment 10. Tumor Inhibition Experiment on MC38-hPDL1 Xenograft Model
To evaluate the antitumor activity of the test compounds against C57 mice subcutaneous xenografts tumor of MC38-hPDL1 cells.
MC38-hPDL1 cells were taken out from the cell bank, added to DMEM medium (DMEM+10% FBS) after recovery, and placed in a CO2 incubator (incubator temperature was 37° C., CO2 concentration was 5%) to culture. MC38-hPDL1 cells were collected when the number of cells increased to the required number of inoculation in vivo. Counted with an automatic cell counter, and resuspend the cells with PBS according to the counting results to prepare a cell suspension (density was 1×10^6/mL), and placed in an ice box for use.
6-8-week-old female C57 mice weighing approximately 18-22 grams were used. Mice were housed in SPF animal room, single cage, 4-5 mice per cage. All cages, litter and water were sterilized at high temperature before use, and all animals had free access to food and water. Before the start of the experiment, C57 mice were marked with a disposable ear tag for rats and mice, and the skin of the inoculation site was disinfected with 75% alcohol before inoculation. Each mouse was subcutaneously inoculated with 0.1 mL (containing 1*10^5 cells) of MC38-hPDL1 cells on the right back. […] […] Tumor volume was measured twice a week and mice were weighed twice a week, and tumor TGI (%) was calculated.
Tumor volume (mm^3), the calculation formula was: V=0.5*D*d*d, wherein D and d were the long and short diameters of the tumor, respectively.
When the tumor regressed, TGI(%)=[1−(average tumor volume at the end of administration of a treatment group-average tumor volume at the beginning of administration of this treatment group)/average tumor volume at the beginning of administration of this treatment group]×100%.

[2] = Pharmacokinetic test of plasma and tumor of tumor-bearing nude mice; assay type: in vivo; conditions: tumor-bearing nude mice, p.o. 30 mg/kg; for Kp: female, mouse, tumor/plasma, po, read-out: Tumor plasma ratio
Method: Test Embodiment 7. Pharmacokinetic Test of Plasma and Tumor of Tumor-Bearing Nude Mice
Taking tumor-bearing nude mice as the test animals, the pharmacokinetic behavior in the plasma and tumor of tumor-bearing nude mice of the following compound embodiments was studied when orally administered at a dose of 30 mg/kg.
Tumor-bearing nude mouse 21/embodiment, female, Shanghai B&K Laboratory Animal Co., Ltd., animal production license number (SCXK (Shanghai) 2013-0006 No. 311620400001794).
0.5% HPMC (1% Tween 80), dissolved by sonication, to prepare a clear solution or a homogeneous suspension.
Tumor-bearing nude mice, female; p.o. after overnight fasting, respectively, at a dose of 30 mg/kg, administered in a volume of 10 mL/kg.
Before and after administration of tumor-bearing nude mice, at 0, 1, 2, 4, 6, 8, 16 and 24 hours, 0.1 mL of blood was collected from the orbit, placed in an EDTA-K2 test tube, and centrifuged at 6000 rpm at 4° C. for 6 min to separate the plasma. After dissection, the tumor tissue was weighed and stored at −80° C.
1) Tumor tissue was homogenized with methanol and water at a ratio of 1:3, and then centrifuged to get the supernatant. 40 μL of tumor homogenate supernatant and 40 μL of plasma sample were added to 160 μL of acetonitrile for precipitation, and after mixing, centrifuged at 3500×g for 5 to 20 minutes.
2) 100 μL of the supernatant solution after treatment was taken for LC/MS/MS to analyze the concentration of the compounds to be tested.
2.7 Liquid Phase Analysis • Liquid phase condition: Shimadzu LC-20AD pump • MS conditions: AB Sciex API 4000 Mass Spectrometer • Chromatographic column: phenomenex Gemiu 5 μm C18 50×4.6 mm • Mobile phase: A solution was aqueous 0.1% formic acid solution, B solution was acetonitrile • Flow rate: 0.8 mL/min • Elution time: 0 to 4.0 minutes, the eluent was as follows:
The main parameters of pharmacokinetics were calculated with WinNonlin 8.2, and the results of the tumor-bearing nude mice pharmacokinetic experiments were shown in the following table: […]

hERG potassium channel = biological target: T1, hERG potassium channel (Homo sapiens, UniProt Q12809); assay: Inhibitory activity test of hERG potassium channel (Qpatch, CHO-hERG cells); assay type: cell-based; conditions: 6 concentrations up to 40 μM
T1 construct: expressed in transfected cells; host or cells: CHO-hERG cells
T1 sequence (Q12809 whole entry): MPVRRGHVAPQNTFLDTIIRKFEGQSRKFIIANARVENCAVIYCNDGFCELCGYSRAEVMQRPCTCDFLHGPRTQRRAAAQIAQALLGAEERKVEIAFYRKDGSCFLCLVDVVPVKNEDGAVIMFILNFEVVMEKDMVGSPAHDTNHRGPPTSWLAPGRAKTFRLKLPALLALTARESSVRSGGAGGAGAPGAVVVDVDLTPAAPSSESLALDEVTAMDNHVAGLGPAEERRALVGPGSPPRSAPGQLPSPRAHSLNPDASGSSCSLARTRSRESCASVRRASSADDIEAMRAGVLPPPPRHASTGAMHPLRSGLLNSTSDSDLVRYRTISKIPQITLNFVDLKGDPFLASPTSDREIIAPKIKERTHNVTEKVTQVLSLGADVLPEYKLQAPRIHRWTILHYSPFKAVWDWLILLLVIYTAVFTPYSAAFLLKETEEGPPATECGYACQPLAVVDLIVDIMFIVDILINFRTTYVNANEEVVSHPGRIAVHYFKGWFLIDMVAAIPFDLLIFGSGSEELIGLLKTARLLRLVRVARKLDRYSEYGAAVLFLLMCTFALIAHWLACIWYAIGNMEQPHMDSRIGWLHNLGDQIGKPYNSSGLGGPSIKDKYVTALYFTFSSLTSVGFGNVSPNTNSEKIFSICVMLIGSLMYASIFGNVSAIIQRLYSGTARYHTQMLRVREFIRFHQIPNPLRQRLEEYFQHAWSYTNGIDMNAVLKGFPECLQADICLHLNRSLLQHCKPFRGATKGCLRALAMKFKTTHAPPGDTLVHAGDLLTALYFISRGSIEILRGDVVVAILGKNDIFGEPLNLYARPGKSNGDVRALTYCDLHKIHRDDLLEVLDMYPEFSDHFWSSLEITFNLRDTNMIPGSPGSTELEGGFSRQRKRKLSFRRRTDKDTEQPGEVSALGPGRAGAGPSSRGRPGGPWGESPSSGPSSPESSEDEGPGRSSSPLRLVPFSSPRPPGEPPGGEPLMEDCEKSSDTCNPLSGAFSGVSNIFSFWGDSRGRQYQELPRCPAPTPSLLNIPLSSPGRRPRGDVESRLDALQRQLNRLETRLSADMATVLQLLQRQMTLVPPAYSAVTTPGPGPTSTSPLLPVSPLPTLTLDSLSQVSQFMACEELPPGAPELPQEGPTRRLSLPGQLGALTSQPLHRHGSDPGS
Method: Test Embodiment 9. Inhibitory Activity Test of hERG Potassium Channel
1.1 CHO-hERG cells were cultured in a 175 cm^2 culture flask. When the cell density reached 60 to 80%, the culture medium was removed, washed with 7 mL of PBS, and then digested with 3 mL of Detachin.
1.2 After the digestion was completed, 7 mL of culture medium was added to neutralize, then centrifuged, and the supernatant was aspirated, and 5 mL of culture medium was added to resuspend to ensure the cell density was 2 to 5×10^6/mL.
Single-cell high-impedance sealing and whole-cell pattern formation were all performed automatically by the Qpatch instrument. After the whole-cell recording pattern was obtained, the cell was clamped at −80 mV, before a +40 mV depolarizing stimulus for 5 s was given, a pre-voltage of −50 mV for 50 ms was given, then repolarized to −50 mV for 5 s, and then returned to −80 mV. This voltage stimulus was applied every 15 seconds, and recorded for 2 minutes, then the extracellular solution was given and then recorded for 5 minutes. Then the dosing process was started. The compound concentration started from the lowest test concentration, and each test concentration was administered for 2.5 minutes. After all concentrations were continuously administered, the positive control compound 3 μM Cisapride was administered. […]
The experimental data was analyzed by XLFit software.

SMILES	Kp [2]	Drug concentration in plasma [2]	Drug concentration in tumor [2]	also measured
COc1nc(-c2cccc(-c3cccc(NC(=O)c4nc5c(n4C)CCN(C)C5)c3Cl)c2Cl)ccc1CN1CC2(C1)CN(C(C)=O)C2 [Embodiment 123, N-(3′-(5-((6-Acetyl-2,6-diazaspiro[3.3]heptan-2-yl)methyl)-6-methoxypyridin-2-yl)-2,2′-dichloro-[1,1′-biphenyl]-3-yl)-1,5-dimethyl-4,5,6,7-tetrahydro-1H-imidazo[4,5-c]pyridine-2-carboxamide]	2.8	821 ng/mL	2285 ng/mL	TGI (%) Day 15 ([1]; 10 mpk po bid, n=8): 63.70%; Tumor volume (mm^3, Mean ± SD) Day 1 ([1]; 10 mpk po bid, n=8): 75.93 ± 26.17 mm^3; Tumor volume (mm^3, Mean ± SD) Day 14 ([1]; 10 mpk po bid, n=8): 644.86 ± 398.92 mm^3; ΔT/ΔC (%) Day 15 ([1]; 10 mpk po bid, n=8): 36.30%; TGI (%) Day 15 ([1]; 30 mpk po qd, n=8): 67.62%; Tumor volume (mm^3, Mean ± SD) Day 1 ([1]; 30 mpk po qd, n=8): 75.50 ± 25.70 mm^3; Tumor volume (mm^3, Mean ± SD) Day 14 ([1]; 30 mpk po qd, n=8): 582.87 ± 359.11 mm^3; ΔT/ΔC (%) Day 15 ([1]; 30 mpk po qd, n=8): 32.38%
COc1nc(-c2cccc(-c3cccc(NC(=O)c4nc5c(n4C)CCN(C)C5)c3Cl)c2Cl)ccc1CNC1COC1 [Embodiment 114, N-(2,2′-Dichloro-3′-(6-methoxy-5-((oxetan-3-ylamino)methyl)pyridin-2-yl)-[1,1′-biphenyl]-3-yl)-1,5-dimethyl-4,5,6,7-tetrahydro-1H-imidazo[4,5-c]pyridine-2-carboxamide]				TGI (%) Day 15 ([1]; 60 mpk po bid, n=7): 74.92%; Tumor volume (mm^3, Mean ± SD) Day 1 ([1]; 60 mpk po bid, n=7): 69.72 ± 21.92 mm^3; Tumor volume (mm^3, Mean ± SD) Day 14 ([1]; 60 mpk po bid, n=7): 140.27 ± 77.92 mm^3; ΔT/ΔC (%) Day 15 ([1]; 60 mpk po bid, n=7): 25.08%
COc1nc(-c2cccc(-c3cccc(NC(=O)c4nc5c(n4C)CCN(C)C5)c3Cl)c2Cl)ccc1CN[C@H]1CCOC[C@@H]1O (relative stereo) [Embodiment 175, N-(2,2′-Dichloro-3′-(5-((((3,4-trans)-3-hydroxytetrahydro-2H-pyran-4-yl)amino)methyl)-6-methoxypyridin-2-yl)-[1,1′-biphenyl]-3-yl)-1,5-dimethyl-4,5,6,7-tetrahydro-1H-imidazo[4,5-c]pyridine-2-carboxamide]	2.1	485 ng/mL	1009 ng/mL	
COc1nc(-c2cccc(-c3cccc(NC(=O)c4nc5c(n4C)CCN(C)C5)c3Cl)c2Cl)ccc1CNC(CO)CO [Embodiment 174, N-(2,2′-Dichloro-3′-(5-(((1,3-dihydroxypropan-2-yl)amino)methyl)-6-methoxypyridin-2-yl)-[1,1′-biphenyl]-3-yl)-1,5-dimethyl-4,5,6,7-tetrahydro-1H-imidazo[4,5-c]pyridine-2-carboxamide]	2.4	291 ng/mL	697 ng/mL	

More lines, main results first:

Kp [2]	Drug concentration in plasma [2]	Drug concentration in tumor [2]	SMILES	also measured
3.5	432 ng/mL	1504 ng/mL	COc1nc(-c2cccc(-c3cccc(NC(=O)c4nc5c(n4C)CCN(C)C5)c3Cl)c2Cl)ncc1CN1CC(CO)C1 [Embodiment 223, N-(2,2′-Dichloro-3′-(5-((3-(hydroxymethyl)azetidin-1-yl)methyl)-4-methoxypyrimidin-2-yl)-[1,1′-biphenyl]-3-yl)-1,5-dimethyl-4,5,6,7-tetrahydro-1H-imidazo[4,5-c]pyridine-2-carboxamide]	IC50 (hERG potassium channel): 14.8 µM
2.2	291 ng/mL	628 ng/mL	COc1nc(-c2cccc(-c3cccc(NC(=O)c4nc5c(n4C)CCN(C)C5)c3Cl)c2Cl)ccc1CN1CC(O)(CO)C1 [Embodiment 173, N-(2,2′-Dichloro-3′-(5-((3-hydroxy-3-(hydroxymethyl)azetidin-1-yl)methyl)-6-methoxypyridin-2-yl)-[1,1-biphenyl]-3-yl)-1,5-dimethyl-4,5,6,7-tetrahydro-1H-imidazo[4,5-c]pyridine-2-carboxamide]	
2.3	309 ng/mL	697 ng/mL	COc1nc(-c2cccc(-c3cccc(NC(=O)c4nc5c(n4C)CCN(C)C5)c3Cl)c2Cl)ccc1CN1CC(C(=O)N(C)C)C1 [Embodiment 183, N-(2,2′-Dichloro-3′-(5-((3-(dimethylcarbamoyl)azetidin-1-yl)methyl)-6-methoxypyridin-2-yl)-[1,1′-biphenyl]-3-yl)-1,5-dimethyl-4,5,6,7-tetrahydro-1H-imidazo[4,5-c]pyridine-2-carboxamide]	
4.6	153 ng/mL	707 ng/mL	COc1nc(-c2cccc(-c3cccc(NC(=O)c4nc5c(n4C)CCN(C)C5)c3Cl)c2Cl)cnc1CN1CC2(C1)CN(C(C)=O)C2 [Embodiment 152, N-(3′-(5-((6-Acetyl-2,6-diazaspiro[3.3]heptan-2-yl)methyl)-6-methoxypyrazin-2-yl)-2,2′-dichloro-[1,1′-biphenyl]-3-yl)-1,5-dimethyl-4,5,6,7-tetrahydro-1H-imidazo[4,5-c]pyridine-2-carboxamide]	

From patent US20230105212A1, “BIPHENYL DERIVATIVE INHIBITOR, PREPARATION METHOD THEREFOR AND USE THEREOF” (SHANGHAI HANSOH BIOMEDICAL CO., LTD., priority 2020, published 2023)
